Measured values from the supplement of paper PMC10307832.

Columns and labels:
Experiment in all cases: relative viability (nuclei count vs DMSO), 5 days (fraction); higher = more cells survive
[1] = compound: CC1=C(C(=NN1)C)CC2=C(C3=C(S2)N(C(=O)N(C3=O)C)CC(C)C)C(=O)N4C[C@@H](CO4)O + O=C(c1cc(Cc2n[nH]c(=O)c3ccccc23)ccc1F)N1CCN(C(=O)C2CC2)CC1 [Olaparib] (partner 8 µM)
How it was run: (§1)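 Cells from lung cancer lines were seeded into 1536-well plates and, one day later, dosed by pin tool. Treatments were either a single drug or a fixed dose of an anchor drug with five library-drug doses (not always all listed) in √10 steps. After 5 days, nuclei were stained in a one-step fixation (final 0.05% Triton X-100, 1% formaldehyde, 1 ug/ml Hoechst) and counted on 4× images, and relative viability is the treated-to-vehicle nuclei ratio, as the median of duplicate plates.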

IDH-C35 + Vorinostat = compound: Cc1ccccc1C(C(=O)NC1CCCCC1)N(C(=O)Cn1ccnc1C)c1cccc(F)c1 [IDH-C35] + O=C(CCCCCCC(=O)Nc1ccccc1)NO [Vorinostat] (partner 1 µM)
How it was run: as §1

[2] = compound: CC1=C(C(=NN1)C)CC2=C(C3=C(S2)N(C(=O)N(C3=O)C)CC(C)C)C(=O)N4C[C@@H](CO4)O + Nc1nc2[nH]cc(CCc3ccc(C(=O)N[C@@H](CCC(=O)O)C(=O)O)cc3)c2c(=O)[nH]1 [Pemetrexed] (partner 0.2 µM)
How it was run: as §1

IDH-C35 + Pictilisib = compound: Cc1ccccc1C(C(=O)NC1CCCCC1)N(C(=O)Cn1ccnc1C)c1cccc(F)c1 [IDH-C35] + CS(=O)(=O)N1CCN(Cc2cc3nc(-c4cccc5[nH]ncc45)nc(N4CCOCC4)c3s2)CC1 [Pictilisib] (partner 1 µM)
How it was run: as §1

For HCC-78, the relative viability ([1]; first compound 0.0025 µM) was 0.826, the relative viability ([1]; first compound 0.007906 µM) was 1 and the relative viability ([1]; first compound 0.025 µM) was 0.92. For the same cell line, the relative viability ([1]; first compound 0.07906 µM) was 0.854, the relative viability ([1]; first compound 0.25 µM) was 0.798 and the relative viability (IDH-C35 + Vorinostat; first compound 0.08 µM) was 0.447. For the same cell line, the relative viability (IDH-C35 + Vorinostat; first compound 0.253 µM) was 0.484, the relative viability (IDH-C35 + Vorinostat; first compound 0.8 µM) was 0.457 and the relative viability (IDH-C35 + Vorinostat; first compound 2.53 µM) was 0.381. It also gave a relative viability (IDH-C35 + Vorinostat; first compound 8 µM) of 0.531, a relative viability ([2]; first compound 0.0025 µM) of 0.904 and a relative viability ([2]; first compound 0.007906 µM) of 0.887. For the same cell line, the relative viability ([2]; first compound 0.025 µM) was 0.897, the relative viability ([2]; first compound 0.07906 µM) was 0.951 and the relative viability ([2]; first compound 0.25 µM) was 0.925. For the same cell line, the relative viability (IDH-C35 + Pictilisib; first compound 0.08 µM) was 0.211, the relative viability (IDH-C35 + Pictilisib; first compound 0.253 µM) was 0.243 and the relative viability (IDH-C35 + Pictilisib; first compound 0.8 µM) was 0.199. For the same cell line, the relative viability (IDH-C35 + Pictilisib; first compound 2.53 µM) was 0.243 and the relative viability (IDH-C35 + Pictilisib; first compound 8 µM) was 0.219.

For HCC-366, the relative viability ([1]; first compound 0.0025 µM) was 0.379, the relative viability ([1]; first compound 0.007906 µM) was 0.473 and the relative viability ([1]; first compound 0.025 µM) was 0.357. It also gave a relative viability ([1]; first compound 0.07906 µM) of 0.294, a relative viability ([1]; first compound 0.25 µM) of 0.371 and a relative viability (IDH-C35 + Vorinostat; first compound 0.08 µM) of 0.49. It also gave a relative viability (IDH-C35 + Vorinostat; first compound 0.253 µM) of 0.351, a relative viability (IDH-C35 + Vorinostat; first compound 0.8 µM) of 0.321 and a relative viability (IDH-C35 + Vorinostat; first compound 2.53 µM) of 0.371. The relative viability (IDH-C35 + Vorinostat; first compound 8 µM) was 0.404, the relative viability ([2]; first compound 0.0025 µM) was 0.178 and the relative viability ([2]; first compound 0.007906 µM) was 0.191. For the same cell line, the relative viability ([2]; first compound 0.025 µM) was 0.133, the relative viability ([2]; first compound 0.07906 µM) was 0.172 and the relative viability ([2]; first compound 0.25 µM) was 0.181. The relative viability (IDH-C35 + Pictilisib; first compound 0.08 µM) was 0.12, the relative viability (IDH-C35 + Pictilisib; first compound 0.253 µM) was 0.132 and the relative viability (IDH-C35 + Pictilisib; first compound 0.8 µM) was 0.169. For the same cell line, the relative viability (IDH-C35 + Pictilisib; first compound 2.53 µM) was 0.151 and the relative viability (IDH-C35 + Pictilisib; first compound 8 µM) was 0.178.

Cell Line HCC-827 has a relative viability ([1]; first compound 0.0025 µM) of 0.641, a relative viability ([1]; first compound 0.007906 µM) of 0.629 and a relative viability ([1]; first compound 0.025 µM) of 0.58. The relative viability ([1]; first compound 0.07906 µM) was 0.612, the relative viability ([1]; first compound 0.25 µM) was 0.612 and the relative viability (IDH-C35 + Vorinostat; first compound 0.08 µM) was 0.731. For the same cell line, the relative viability (IDH-C35 + Vorinostat; first compound 0.253 µM) was 0.85, the relative viability (IDH-C35 + Vorinostat; first compound 0.8 µM) was 0.811 and the relative viability (IDH-C35 + Vorinostat; first compound 2.53 µM) was 0.789. It also gave a relative viability (IDH-C35 + Vorinostat; first compound 8 µM) of 0.868, a relative viability ([2]; first compound 0.0025 µM) of 0.245 and a relative viability ([2]; first compound 0.007906 µM) of 0.27. The relative viability ([2]; first compound 0.025 µM) was 0.272, the relative viability ([2]; first compound 0.07906 µM) was 0.288 and the relative viability ([2]; first compound 0.25 µM) was 0.237. For the same cell line, the relative viability (IDH-C35 + Pictilisib; first compound 0.08 µM) was 0.966, the relative viability (IDH-C35 + Pictilisib; first compound 0.253 µM) was 0.921 and the relative viability (IDH-C35 + Pictilisib; first compound 0.8 µM) was 1.02. It also gave a relative viability (IDH-C35 + Pictilisib; first compound 2.53 µM) of 1.13 and a relative viability (IDH-C35 + Pictilisib; first compound 8 µM) of 1.17.

HOP-62 showed a relative viability ([1]; first compound 0.0025 µM) of 0.408, a relative viability ([1]; first compound 0.007906 µM) of 0.434 and a relative viability ([1]; first compound 0.025 µM) of 0.545. The relative viability ([1]; first compound 0.07906 µM) was 0.425, the relative viability ([1]; first compound 0.25 µM) was 0.515 and the relative viability (IDH-C35 + Vorinostat; first compound 0.08 µM) was 0.532. For the same cell line, the relative viability (IDH-C35 + Vorinostat; first compound 0.253 µM) was 0.708, the relative viability (IDH-C35 + Vorinostat; first compound 0.8 µM) was 0.669 and the relative viability (IDH-C35 + Vorinostat; first compound 2.53 µM) was 0.434. For the same cell line, the relative viability (IDH-C35 + Vorinostat; first compound 8 µM) was 0.628, the relative viability ([2]; first compound 0.0025 µM) was 0.357 and the relative viability ([2]; first compound 0.007906 µM) was 0.332. The relative viability ([2]; first compound 0.025 µM) was 0.217, the relative viability ([2]; first compound 0.07906 µM) was 0.281 and the relative viability ([2]; first compound 0.25 µM) was 0.356. For the same cell line, the relative viability (IDH-C35 + Pictilisib; first compound 0.08 µM) was 0.509, the relative viability (IDH-C35 + Pictilisib; first compound 0.253 µM) was 0.744 and the relative viability (IDH-C35 + Pictilisib; first compound 0.8 µM) was 0.537. For the same cell line, the relative viability (IDH-C35 + Pictilisib; first compound 8 µM) was 0.581.

With IA-LM the relative viability ([1]; first compound 0.0025 µM) was 0.907, the relative viability ([1]; first compound 0.007906 µM) was 1.03 and the relative viability ([1]; first compound 0.025 µM) was 0.807. It also gave a relative viability ([1]; first compound 0.07906 µM) of 0.757, a relative viability ([1]; first compound 0.25 µM) of 0.865 and a relative viability (IDH-C35 + Vorinostat; first compound 0.08 µM) of 1. The relative viability (IDH-C35 + Vorinostat; first compound 0.253 µM) was 0.878, the relative viability (IDH-C35 + Vorinostat; first compound 0.8 µM) was 0.881 and the relative viability (IDH-C35 + Vorinostat; first compound 8 µM) was 1.05. The relative viability (IDH-C35 + Pictilisib; first compound 0.08 µM) was 0.381, the relative viability (IDH-C35 + Pictilisib; first compound 0.253 µM) was 0.382 and the relative viability (IDH-C35 + Pictilisib; first compound 0.8 µM) was 0.33. It also gave a relative viability (IDH-C35 + Pictilisib; first compound 2.53 µM) of 0.325 and a relative viability (IDH-C35 + Pictilisib; first compound 8 µM) of 0.322.

For LC-2-ad, the relative viability ([1]; first compound 0.0025 µM) was 0.748, the relative viability ([1]; first compound 0.007906 µM) was 0.659 and the relative viability ([1]; first compound 0.025 µM) was 0.702. The relative viability ([1]; first compound 0.07906 µM) was 0.658, the relative viability ([1]; first compound 0.25 µM) was 0.782 and the relative viability (IDH-C35 + Vorinostat; first compound 0.08 µM) was 0.694. It also gave a relative viability (IDH-C35 + Vorinostat; first compound 0.253 µM) of 0.701, a relative viability (IDH-C35 + Vorinostat; first compound 0.8 µM) of 0.67 and a relative viability (IDH-C35 + Vorinostat; first compound 2.53 µM) of 0.632. It also gave a relative viability (IDH-C35 + Vorinostat; first compound 8 µM) of 0.677, a relative viability ([2]; first compound 0.0025 µM) of 0.27 and a relative viability ([2]; first compound 0.007906 µM) of 0.25. It also gave a relative viability ([2]; first compound 0.025 µM) of 0.26, a relative viability ([2]; first compound 0.07906 µM) of 0.285 and a relative viability ([2]; first compound 0.25 µM) of 0.261. It also gave a relative viability (IDH-C35 + Pictilisib; first compound 0.08 µM) of 0.595, a relative viability (IDH-C35 + Pictilisib; first compound 0.253 µM) of 0.472 and a relative viability (IDH-C35 + Pictilisib; first compound 0.8 µM) of 0.439. It also gave a relative viability (IDH-C35 + Pictilisib; first compound 2.53 µM) of 0.441 and a relative viability (IDH-C35 + Pictilisib; first compound 8 µM) of 0.455.

LCLC-97TM1 was tested, and the relative viability ([1]; first compound 0.0025 µM) was 0.492, the relative viability ([1]; first compound 0.007906 µM) was 0.519 and the relative viability ([1]; first compound 0.025 µM) was 0.404. The relative viability ([1]; first compound 0.07906 µM) was 0.38, the relative viability ([1]; first compound 0.25 µM) was 0.414 and the relative viability (IDH-C35 + Vorinostat; first compound 0.08 µM) was 0.706. The relative viability (IDH-C35 + Vorinostat; first compound 0.253 µM) was 0.729, the relative viability (IDH-C35 + Vorinostat; first compound 0.8 µM) was 0.67 and the relative viability (IDH-C35 + Vorinostat; first compound 8 µM) was 0.436. For the same cell line, the relative viability ([2]; first compound 0.0025 µM) was 0.179, the relative viability ([2]; first compound 0.007906 µM) was 0.19 and the relative viability ([2]; first compound 0.025 µM) was 0.173. For the same cell line, the relative viability ([2]; first compound 0.07906 µM) was 0.152, the relative viability ([2]; first compound 0.25 µM) was 0.202 and the relative viability (IDH-C35 + Pictilisib; first compound 0.08 µM) was 0.17. It also gave a relative viability (IDH-C35 + Pictilisib; first compound 0.253 µM) of 0.168, a relative viability (IDH-C35 + Pictilisib; first compound 0.8 µM) of 0.192 and a relative viability (IDH-C35 + Pictilisib; first compound 8 µM) of 0.192.

LCLC-103H was tested, and the relative viability ([1]; first compound 0.0025 µM) was 0.797, the relative viability ([1]; first compound 0.007906 µM) was 0.735 and the relative viability ([1]; first compound 0.025 µM) was 0.762. For the same cell line, the relative viability ([1]; first compound 0.07906 µM) was 0.753, the relative viability ([1]; first compound 0.25 µM) was 0.773 and the relative viability (IDH-C35 + Vorinostat; first compound 0.08 µM) was 0.782. The relative viability (IDH-C35 + Vorinostat; first compound 0.253 µM) was 0.755, the relative viability (IDH-C35 + Vorinostat; first compound 0.8 µM) was 0.87 and the relative viability (IDH-C35 + Vorinostat; first compound 2.53 µM) was 0.591. It also gave a relative viability (IDH-C35 + Vorinostat; first compound 8 µM) of 0.625, a relative viability ([2]; first compound 0.0025 µM) of 0.437 and a relative viability ([2]; first compound 0.007906 µM) of 0.474. It also gave a relative viability ([2]; first compound 0.025 µM) of 0.444, a relative viability ([2]; first compound 0.07906 µM) of 0.459 and a relative viability ([2]; first compound 0.25 µM) of 0.505. For the same cell line, the relative viability (IDH-C35 + Pictilisib; first compound 0.08 µM) was 0.7, the relative viability (IDH-C35 + Pictilisib; first compound 0.253 µM) was 0.62 and the relative viability (IDH-C35 + Pictilisib; first compound 0.8 µM) was 0.536. The relative viability (IDH-C35 + Pictilisib; first compound 2.53 µM) was 0.715 and the relative viability (IDH-C35 + Pictilisib; first compound 8 µM) was 0.603.
